The values below come from patent publication US6753337B2, “Alkynyl containing hydroxamic acid compounds as matrix metalloproteinase/tace inhibitors” (Wyeth Holdings Corporation, priority 1999, dated 2004).

Molecules are shown by their SMILES. pIC50: −log10 of the molar value. Where a name gives a salt, the structure may show the parent alone.

What all share (type): biochemical
Test [1] addresses TNF-α converting enzyme (TACE) (Homo sapiens, UniProt P78536). Briefly: Test procedure for measuring TACE inhibition (fluorescent peptidyl substrate). How it is done: Using 96-well black microtiter plates, each well receives a solution composed of 10 μL TACE (final concentration 1 μg/mL), 70 μL Tris buffer, pH 7.4 containing 10% glycerol (final concentration 10 mM), and 10 μL of test compound solution in DMSO (final concentration 1 μM, DMSO concentration <1%) and incubated for 10 minutes at room temperature. The reaction is initiated by addition of a fluorescent peptidyl substrate (final concentration 100 μM to each well and then shaking on a shaker for 5 sec.
The reaction is read (excitation 340 nm, emission 420 nm) for 10 min. and the increase in fluorescence over time is plotted as a linear line. The slope of the line is calculated and represents the reaction rate.
The mean (x±sem) of the control rate is calculated and compared for statistical significance (p<0.05) with drug-treated rates using Dunnett's multiple comparison test.

Test [2] addresses MMP-9 (Homo sapiens, UniProt P14780). Nature of the test: MMP-9 inhibition (thiopeptide or fluorescent peptide substrate). How it is done:
(§1) These standard pharmacological test procedures are based on the cleavage of a thiopeptide substrates such as Ac-Pro-Leu-Gly(2-mercapto-4-methyl-pentanoyl)-Leu-Gly-OEt by the matrix metalloproteinases MMP-1, MMP-13 (collagenases) or MMP-9 (gelatinase), which results in the release of a substrate product that reacts colorimetrically with DTNB (5,5′-dithiobis(2-nitro-benzoic acid)). The enzyme activity is measured by the rate of the color increase. The thiopeptide substrate is made up fresh as a 20 mM stock in 100% DMSO and the DTNB is dissolved in 100% DMSO as a 100 mM stock and stored in the dark at room temperature. Both the substrate and DTNB are diluted together to 1 mM with substrate buffer (50 mM HEPES pH 7.5, 5 mM CaCl2) before use. The stock of enzyme is diluted with buffer (50 mM HEPES, pH 7.5, 5 mM CaCl2, 0.02% Brij) to the desired final concentration. The buffer, enzyme, vehicle or inhibitor, and DTNB/substrate are added in this order to a 96 well plate (total reaction volume of 200 μl) and the increase in color is monitored spectrophotometrically for 5 minutes at 405 nm on a plate reader and the increase in color over time is plotted as a linear line.
(§2) Alternatively, a fluorescent peptide substrate is used. In this test procedure, the peptide substrate contains a fluorescent group and a quenching group. Upon cleavage of the substrate by an MMP, the fluorescence that is generated is quantitated on the fluorescence plate reader. The assay is run in HCBC assay buffer (50 mM HEPES, pH 7.0, 5 mM Ca^+2, 0.02% Brij, 0.5% Cysteine), with human recombinant MMP-1, MMP-9, or MMP-13. The substrate is dissolved in methanol and stored frozen in 1 mM aliquots. For the assay, substrate and enzymes are diluted in HCBC buffer to the desired concentrations. Compounds are added to the 96 well plate containing enzyme and the reaction is started by the addition of substrate. The reaction is read (excitation 340 nm, emission 444 nm) for 10 min. and the increase in fluorescence over time is plotted as a linear line.
(§3) For either the thiopeptide or fluorescent peptide test procedures, the slope of the line is calculated and represents the reaction rate. The linearity of the reaction rate is confirmed (r^2>0.85). The mean (x±sem) of the control rate is calculated and compared for statistical significance (p<0.05) with drug-treated rates using Dunnett's multiple comparison test. Dose-response relationships can be generated using multiple doses of drug and IC50 values with 95% CI are estimated using linear regression.

Test [3] has as its target MMP-13 (Homo sapiens, UniProt P45452). Nature of the test: MMP-13 inhibition (thiopeptide or fluorescent peptide substrate). The settings on record: for MMP13 % inhibition: MMP13 IC50, concentration not given; for pIC50: read-out: MMP13 IC50. How it is done: The enzyme activity is measured by the rate of the color increase. The thiopeptide substrate is made up fresh as a 20 mM stock in 100% DMSO and the DTNB is dissolved in 100% DMSO as a 100 mM stock and stored in the dark at room temperature. Both the substrate and DTNB are diluted together to 1 mM with substrate buffer (50 mM HEPES pH 7.5, 5 mM CaCl2) before use. The stock of enzyme is diluted with buffer (50 mM HEPES, pH 7.5, 5 mM CaCl2, 0.02% Brij) to the desired final concentration.
as §2, with “substrate.” for “substrate. The reaction is read (excitation 340 nm, emission 444 nm) for 10 min. and the increase in fluorescence over time is plotted as a linear line.”
For either the thiopeptide or fluorescent peptide test procedures, the slope of the line is calculated and represents the reaction rate. […] The mean (x±sem) of the control rate is calculated and compared for statistical significance (p<0.05) with drug-treated rates using Dunnett's multiple comparison test.

The target in test [4] is T1, MMP-1 (Homo sapiens, UniProt P03956).
T1 sequence (P03956 100-469): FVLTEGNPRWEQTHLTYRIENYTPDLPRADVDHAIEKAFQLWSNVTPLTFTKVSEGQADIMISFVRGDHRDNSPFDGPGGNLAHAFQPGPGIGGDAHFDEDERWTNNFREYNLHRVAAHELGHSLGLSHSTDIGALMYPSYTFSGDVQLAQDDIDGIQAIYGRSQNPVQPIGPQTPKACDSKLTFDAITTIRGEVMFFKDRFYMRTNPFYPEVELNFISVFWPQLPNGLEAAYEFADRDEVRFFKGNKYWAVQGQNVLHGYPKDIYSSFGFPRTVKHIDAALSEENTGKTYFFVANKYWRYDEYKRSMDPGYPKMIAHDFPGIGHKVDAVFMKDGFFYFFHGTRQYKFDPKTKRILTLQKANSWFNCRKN
Nature of the test: MMP-1 inhibition (thiopeptide or fluorescent peptide substrate). The settings on record: printed in the MMP1 IC50 column; concentration not given. How it is done:
as §1, §2, §3

Chain of TNF-α converting enzyme (TACE) (P78536 215-824): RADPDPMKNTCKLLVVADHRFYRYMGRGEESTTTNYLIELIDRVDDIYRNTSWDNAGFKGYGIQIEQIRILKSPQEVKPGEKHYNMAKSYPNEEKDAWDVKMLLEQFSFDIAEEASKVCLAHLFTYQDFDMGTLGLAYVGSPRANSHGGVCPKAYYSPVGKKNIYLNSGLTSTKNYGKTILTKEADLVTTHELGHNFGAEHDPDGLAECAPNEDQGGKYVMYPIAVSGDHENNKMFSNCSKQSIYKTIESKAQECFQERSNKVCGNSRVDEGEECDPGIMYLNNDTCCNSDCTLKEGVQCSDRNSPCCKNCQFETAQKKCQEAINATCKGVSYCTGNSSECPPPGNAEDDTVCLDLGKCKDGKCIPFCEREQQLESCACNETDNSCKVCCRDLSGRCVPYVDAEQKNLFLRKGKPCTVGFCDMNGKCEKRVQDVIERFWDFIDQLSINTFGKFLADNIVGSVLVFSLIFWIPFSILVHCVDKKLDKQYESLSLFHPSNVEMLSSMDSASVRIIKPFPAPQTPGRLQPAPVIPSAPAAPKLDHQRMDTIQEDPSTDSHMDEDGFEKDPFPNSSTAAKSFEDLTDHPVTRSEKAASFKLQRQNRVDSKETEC
Chain of MMP-9 (P14780 94-707): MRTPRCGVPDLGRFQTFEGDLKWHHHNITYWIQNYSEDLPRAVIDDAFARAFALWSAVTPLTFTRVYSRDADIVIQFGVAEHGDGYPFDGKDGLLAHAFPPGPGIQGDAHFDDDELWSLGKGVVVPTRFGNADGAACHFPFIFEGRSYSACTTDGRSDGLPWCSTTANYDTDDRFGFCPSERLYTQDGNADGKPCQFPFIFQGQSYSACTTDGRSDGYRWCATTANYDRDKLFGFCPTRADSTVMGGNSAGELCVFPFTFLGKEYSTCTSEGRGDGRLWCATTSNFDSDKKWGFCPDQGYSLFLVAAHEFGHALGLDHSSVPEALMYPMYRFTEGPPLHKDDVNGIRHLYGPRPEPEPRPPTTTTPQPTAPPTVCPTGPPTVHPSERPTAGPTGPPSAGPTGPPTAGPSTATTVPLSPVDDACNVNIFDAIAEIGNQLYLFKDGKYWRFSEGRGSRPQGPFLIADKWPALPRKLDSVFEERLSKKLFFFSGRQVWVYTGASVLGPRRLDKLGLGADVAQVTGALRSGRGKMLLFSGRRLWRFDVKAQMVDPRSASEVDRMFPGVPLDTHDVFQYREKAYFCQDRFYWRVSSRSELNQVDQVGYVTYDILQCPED

With `CCCCCC#CCOc1ccc(S(=O)(=O)C2(C(=O)NO)CCN(Cc3ccc(Br)cc3)CC2)cc1` [Example 6, 1-(4-Bromo-benzyl)-4-(4-oct-2-ynyloxy-benzenesulfonyl)-piperdine-4-carboxylic acid hydroxyamide], in test [1], the pIC50 (as a rule, the negative decadic logarithm of the IC50, by convention in mol/L) was 6.41. This molecule also had an MMP9 % inhibition in test [2] (printed in the MMP9 IC50 column, concentration not given) of 58.9%. In test [3], this molecule showed an MMP13 % inhibition of 60%. Also, the MMP1 % inhibition in test [4] is listed as 32.9%.
In the case of `CC#CCOc1ccc(SC2(C(=O)NO)CCN(Cc3ccc(Br)cc3)CC2)cc1` [Example 16, 1-(4-Bromo-benzyl)-4-(4-but-2-ynyloxy-phenylsulfanyl)-piperidine-4-carboxylic acid hydroxyamide], the inhibition (commonly how much of the control response was suppressed) at 1 µM in test [1] stood at 46%. Moreover, the pIC50 in test [2] (read-out: MMP9 IC50) is 5.69; in test [3] it was 5.83.
As to `CC#CCOc1ccc(S(=O)(=O)CC2(C(=O)NO)CCN(CC)CC2)cc1` [Example 46, 4-({[4-(But-2-ynyloxy)phenyl]sulfonyl}methyl)-1-ethyl-N-hydroxypiperidine-4-carboxamide triflouroacetic acid salt], the pIC50 in test [1] is 6.98. The molecule further gave an MMP13 % inhibition in test [3] of 55.6%.
As for `CC#CCOc1ccc(S(=O)(=O)CC2(C(=O)NO)CCN(Cc3ccc(Cl)s3)CC2)cc1` [Example 47, 4-({[4-(But-2-ynyloxy)phenyl]sulfonyl}methyl)-1-[(5-chlorothien-2-yl)methyl]-N-hydroxypiperidine-4-carboxamide triflouroacetic acid salt], the pIC50 in test [1] was 6.64; in test [3], 6.56.
For `CC#CCOc1ccc(S(=O)(=O)CC2(C(=O)NO)CCN(C(=O)c3cccnc3)CC2)cc1` [Example 49, 4-({[4-(But-2-ynyloxy)phenyl]sulfonyl}methyl)-N-hydroxy-1-(pyridin-3-ylcarbonyl)piperidine-4-carboxamide triflouroacetic acid salt], the results for the pIC50 in test [1] and in test [3] were 7.49 and 5.76, respectively.
Turning to `CC#CCOc1ccc(S(=O)(=O)CC2(C(=O)NO)CCN(C(=O)c3ccccc3)CC2)cc1` [Example 50, 1-Benzoyl-4-({[4-(but-2-ynyloxy)phenyl]sulfonyl}-methyl)-N-hydroxypiperidine-4-carboxamide], the pIC50 in test [3] was 6.45.
On to `CC#CCOc1ccc(S(=O)(=O)CC2(C(=O)NO)CCN(C(=O)NCC)CC2)cc1` [Example 52, 4-({[4-(But-2-ynyloxy)phenyl]sulfonyl}methyl)-N-1-ethyl-N-4-hydroxypiperidine-1,4-dicarboxamide], for which the pIC50 in test [1] was 7.38; in test [3] it was 5.43.
On to `CC#CCOc1ccc(S(=O)(=O)CC2(C(=O)NO)CCN(C(=O)Nc3ccccc3)CC2)cc1` [Example 53, 4-({[4-(But-2-ynyloxy)phenyl]sulfonyl}methyl)-N-4-hydroxy-N-1-phenyl-piperidine-1,4-dicarboxamide], for which the pIC50 is 7.68 in test [1] and 5.93 in test [3].
`CC#CCOc1ccc(S(=O)(=O)CC2(C(=O)NO)CCN(C(=O)N(CC)CC)CC2)cc1` [Example 54, 4-({[4-(But-2-ynyloxy)phenyl]sulfonyl}methyl)-N-1-,N-1-diethyl-N-4-hydroxypiperidine-1,4-dicarboxamide]: the values for the pIC50 in test [1] and in test [3] were 7.49 and 6.98, respectively.
For the molecule `CC#CCOc1ccc(S(=O)(=O)CC2(C(=O)NO)CCN(C(=O)N3CCOCC3)CC2)cc1` [Example 55, 4-({[4-(But-2-ynyloxy)phenyl]sulfonyl}methyl)-N-hydroxy-1-(morpholin-4-ylcarbonyl)piperdine-4-carboxamide], the pIC50 was 7.15 in test [1] and 6.22 in test [3].
As to `CC#CCOc1ccc(S(=O)(=O)CC2(C(=O)NO)CCN(C(=O)N(C)c3ccccc3)CC2)cc1` [Example 56, 4-({[4-(But-2-ynyloxy)phenyl]sulfonyl}methyl)-N-4-hydroxy-N-1-methyl-N-1-phenylpiperidine-1,4-dicarboxamide], the pIC50 in test [3] is 8.49.
Regarding `CC#CCOc1ccc(S(=O)(=O)CC2(C(=O)NO)CCN(C(=O)OCCCCCCCC)CC2)cc1` [Example 57, Octyl-4-({[4-(but-2-ynyloxy)phenyl]sulfonyl}methyl)-4-[(hydroxyamino)-carbonyl]piperidine-1-carboxylate], the pIC50 in test [1] is 6.16; in test [3], 6.34.
Take `CC#CCOc1ccc(S(=O)(=O)CC2(C(=O)NO)CCN(C(=O)Oc3ccc(OC)cc3)CC2)cc1` [Example 58, 4-Methoxyphenyl-4-({[4-(but-2-ynyloxy)phenyl]sulfonyl}methyl)-4-[(hydroxyamino)carbonyl]piperidine-1-carboxylate]: the results for the pIC50 in test [1] and in test [3] were 7.68 and 6.75, respectively.
`CC#CCOc1ccc(S(=O)(=O)CC2(C(=O)NO)CCN(S(=O)(=O)c3ccccc3)CC2)cc1` [Example 59, 4-({[4-(But-2-ynyloxy)phenyl]sulfonyl}methyl)-N-hydroxyl-(phenylsulfonyl)piperidine-4-carboxamide]: the pIC50 in test [1] was 7.27; in test [3], 7.95.
For `CC#CCOc1ccc(S(=O)(=O)CC2(C(=O)NO)CCN(S(=O)(=O)c3cn(C)cn3)CC2)cc1` [Example 60, 4-({[4-(But-2-ynyloxy)phenyl]sulfonyl}methyl)-N-hydroxy-1-1-[(1-methyl-1H-imidazol-4-yl)-sulfonyl]piperidine-4-carboxamide] the same measures were 7.42 and 8.10.
The corresponding values for `CC#CCOc1ccc(S(=O)(=O)CC2(C(=O)NO)CCN(C(=O)CNCc3ccccc3)CC2)cc1` [Example 61, 1-[2-(Benzylamino)acetyl]-4-({[4-(but-2-ynyloxy)phenyl]sulfonyl}methyl)-N-hydroxypiperidine-4-carboxamide] are 7.25 and 6.24.
For the molecule `CC#CCOc1ccc(S(=O)(=O)CC2(C(=O)NO)CCN(C(=O)CN3CCN(C)CC3)CC2)cc1` [Example 63, 4-({[4-(But-2-ynyloxy)phenyl]sulfonyl}methyl)-N-hydroxy-1-[2-(4-methylpiperazin-1-yl)acetyl]piperidine-4-carboxamide], the results for the pIC50 in test [1] and in test [3] were 7.18 and 5.65, respectively.
